The record followed here is ChEMBL document CHEMBL5465560, “Selectivity Literature for EUbOPEN Chemogenomic Library” (2024).

Test [1] has as its target T1, Serine/threonine-protein kinase DCLK2 (Homo sapiens) (UniProt Q8N568).
T1 sequence (whole entry): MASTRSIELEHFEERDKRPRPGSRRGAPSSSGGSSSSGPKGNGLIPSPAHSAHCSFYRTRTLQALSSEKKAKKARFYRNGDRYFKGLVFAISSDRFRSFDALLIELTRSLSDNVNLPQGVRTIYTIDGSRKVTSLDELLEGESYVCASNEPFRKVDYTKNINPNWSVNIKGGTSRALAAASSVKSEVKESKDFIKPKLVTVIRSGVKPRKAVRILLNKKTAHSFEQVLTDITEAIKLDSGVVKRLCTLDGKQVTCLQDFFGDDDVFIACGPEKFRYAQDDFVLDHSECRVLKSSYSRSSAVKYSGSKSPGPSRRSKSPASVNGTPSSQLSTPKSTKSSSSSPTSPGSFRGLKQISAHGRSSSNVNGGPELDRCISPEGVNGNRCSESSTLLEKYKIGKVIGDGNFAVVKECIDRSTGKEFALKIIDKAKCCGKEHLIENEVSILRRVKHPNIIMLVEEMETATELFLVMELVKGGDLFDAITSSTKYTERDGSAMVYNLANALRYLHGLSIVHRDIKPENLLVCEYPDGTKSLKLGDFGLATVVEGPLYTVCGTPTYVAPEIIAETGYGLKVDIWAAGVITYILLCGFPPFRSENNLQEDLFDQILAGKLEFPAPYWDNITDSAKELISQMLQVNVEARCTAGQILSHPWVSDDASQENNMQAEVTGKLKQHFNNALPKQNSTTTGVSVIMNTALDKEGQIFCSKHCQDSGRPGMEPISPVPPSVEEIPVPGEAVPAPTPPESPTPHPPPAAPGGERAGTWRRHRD
The settings on record: at 10 µM.

In test [2] the target is Serine/threonine-protein kinase WNK2 (Homo sapiens) (UniProt Q9Y3S1). The test is described as follows: Selectivity interaction (ActivX KiNativ screen (kinase selectivity in THP-1 cell lysates)) EUB0000639a WNK2. The format is subcellular. The following applies: lysate.
The target of test [3] is T2, Phosphatidylinositol 3-kinase C2 domain-containing subunit gamma (Homo sapiens) (UniProt O75747).
T2 sequence (whole entry): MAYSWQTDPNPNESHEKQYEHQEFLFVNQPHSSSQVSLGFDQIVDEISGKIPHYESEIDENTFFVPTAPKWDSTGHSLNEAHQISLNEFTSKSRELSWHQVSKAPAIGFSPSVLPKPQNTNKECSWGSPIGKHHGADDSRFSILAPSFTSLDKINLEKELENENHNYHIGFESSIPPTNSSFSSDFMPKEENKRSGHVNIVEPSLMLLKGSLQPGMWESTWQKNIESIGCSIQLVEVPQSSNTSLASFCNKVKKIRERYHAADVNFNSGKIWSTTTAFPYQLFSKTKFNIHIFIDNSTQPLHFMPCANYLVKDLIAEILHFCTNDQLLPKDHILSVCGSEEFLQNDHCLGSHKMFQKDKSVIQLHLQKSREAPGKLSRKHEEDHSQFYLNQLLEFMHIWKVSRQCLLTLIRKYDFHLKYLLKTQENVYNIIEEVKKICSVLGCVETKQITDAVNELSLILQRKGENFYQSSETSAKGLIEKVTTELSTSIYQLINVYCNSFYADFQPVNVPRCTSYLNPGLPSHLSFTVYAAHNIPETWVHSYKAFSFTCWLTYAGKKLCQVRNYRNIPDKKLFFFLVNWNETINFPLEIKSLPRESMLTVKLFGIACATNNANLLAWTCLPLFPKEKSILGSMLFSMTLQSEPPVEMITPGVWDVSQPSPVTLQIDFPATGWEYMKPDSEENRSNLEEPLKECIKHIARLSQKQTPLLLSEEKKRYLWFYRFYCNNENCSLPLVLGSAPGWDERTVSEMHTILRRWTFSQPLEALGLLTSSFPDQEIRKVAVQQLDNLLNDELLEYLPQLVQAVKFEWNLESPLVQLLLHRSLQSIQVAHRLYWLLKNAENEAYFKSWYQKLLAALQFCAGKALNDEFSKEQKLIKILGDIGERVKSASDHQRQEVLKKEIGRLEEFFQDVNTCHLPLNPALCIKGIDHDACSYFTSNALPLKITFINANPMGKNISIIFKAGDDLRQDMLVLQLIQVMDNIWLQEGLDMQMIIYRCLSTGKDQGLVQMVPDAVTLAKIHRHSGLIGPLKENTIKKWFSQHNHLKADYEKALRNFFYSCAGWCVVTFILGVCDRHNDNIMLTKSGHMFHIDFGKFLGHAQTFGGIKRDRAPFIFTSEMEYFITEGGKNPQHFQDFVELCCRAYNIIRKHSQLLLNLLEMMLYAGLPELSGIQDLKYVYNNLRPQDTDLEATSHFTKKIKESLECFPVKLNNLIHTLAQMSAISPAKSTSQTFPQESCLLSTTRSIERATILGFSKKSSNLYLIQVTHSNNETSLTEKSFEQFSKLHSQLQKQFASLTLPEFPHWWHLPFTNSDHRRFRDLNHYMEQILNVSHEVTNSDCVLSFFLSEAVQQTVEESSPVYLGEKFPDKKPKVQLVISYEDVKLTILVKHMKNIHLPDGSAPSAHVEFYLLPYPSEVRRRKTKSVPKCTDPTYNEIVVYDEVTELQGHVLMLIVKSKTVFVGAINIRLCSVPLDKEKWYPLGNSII
The test is described as follows: Selectivity interaction (KinomeScan (DiscoverX)) EUB0001049a PIK3C2G. The settings on record: at 1 µM.

Test [4] concerns the target Serine/threonine-protein kinase mTOR (Homo sapiens, UniProt P42345). The test is described as follows: Selectivity interaction (KinomeScan (DiscoverX)) EUB0000655a MTOR. The following applies: at 10 µM.

Sequence of Serine/threonine-protein kinase WNK2 (Homo sapiens) (Q9Y3S1 whole entry, the tested form may be a part): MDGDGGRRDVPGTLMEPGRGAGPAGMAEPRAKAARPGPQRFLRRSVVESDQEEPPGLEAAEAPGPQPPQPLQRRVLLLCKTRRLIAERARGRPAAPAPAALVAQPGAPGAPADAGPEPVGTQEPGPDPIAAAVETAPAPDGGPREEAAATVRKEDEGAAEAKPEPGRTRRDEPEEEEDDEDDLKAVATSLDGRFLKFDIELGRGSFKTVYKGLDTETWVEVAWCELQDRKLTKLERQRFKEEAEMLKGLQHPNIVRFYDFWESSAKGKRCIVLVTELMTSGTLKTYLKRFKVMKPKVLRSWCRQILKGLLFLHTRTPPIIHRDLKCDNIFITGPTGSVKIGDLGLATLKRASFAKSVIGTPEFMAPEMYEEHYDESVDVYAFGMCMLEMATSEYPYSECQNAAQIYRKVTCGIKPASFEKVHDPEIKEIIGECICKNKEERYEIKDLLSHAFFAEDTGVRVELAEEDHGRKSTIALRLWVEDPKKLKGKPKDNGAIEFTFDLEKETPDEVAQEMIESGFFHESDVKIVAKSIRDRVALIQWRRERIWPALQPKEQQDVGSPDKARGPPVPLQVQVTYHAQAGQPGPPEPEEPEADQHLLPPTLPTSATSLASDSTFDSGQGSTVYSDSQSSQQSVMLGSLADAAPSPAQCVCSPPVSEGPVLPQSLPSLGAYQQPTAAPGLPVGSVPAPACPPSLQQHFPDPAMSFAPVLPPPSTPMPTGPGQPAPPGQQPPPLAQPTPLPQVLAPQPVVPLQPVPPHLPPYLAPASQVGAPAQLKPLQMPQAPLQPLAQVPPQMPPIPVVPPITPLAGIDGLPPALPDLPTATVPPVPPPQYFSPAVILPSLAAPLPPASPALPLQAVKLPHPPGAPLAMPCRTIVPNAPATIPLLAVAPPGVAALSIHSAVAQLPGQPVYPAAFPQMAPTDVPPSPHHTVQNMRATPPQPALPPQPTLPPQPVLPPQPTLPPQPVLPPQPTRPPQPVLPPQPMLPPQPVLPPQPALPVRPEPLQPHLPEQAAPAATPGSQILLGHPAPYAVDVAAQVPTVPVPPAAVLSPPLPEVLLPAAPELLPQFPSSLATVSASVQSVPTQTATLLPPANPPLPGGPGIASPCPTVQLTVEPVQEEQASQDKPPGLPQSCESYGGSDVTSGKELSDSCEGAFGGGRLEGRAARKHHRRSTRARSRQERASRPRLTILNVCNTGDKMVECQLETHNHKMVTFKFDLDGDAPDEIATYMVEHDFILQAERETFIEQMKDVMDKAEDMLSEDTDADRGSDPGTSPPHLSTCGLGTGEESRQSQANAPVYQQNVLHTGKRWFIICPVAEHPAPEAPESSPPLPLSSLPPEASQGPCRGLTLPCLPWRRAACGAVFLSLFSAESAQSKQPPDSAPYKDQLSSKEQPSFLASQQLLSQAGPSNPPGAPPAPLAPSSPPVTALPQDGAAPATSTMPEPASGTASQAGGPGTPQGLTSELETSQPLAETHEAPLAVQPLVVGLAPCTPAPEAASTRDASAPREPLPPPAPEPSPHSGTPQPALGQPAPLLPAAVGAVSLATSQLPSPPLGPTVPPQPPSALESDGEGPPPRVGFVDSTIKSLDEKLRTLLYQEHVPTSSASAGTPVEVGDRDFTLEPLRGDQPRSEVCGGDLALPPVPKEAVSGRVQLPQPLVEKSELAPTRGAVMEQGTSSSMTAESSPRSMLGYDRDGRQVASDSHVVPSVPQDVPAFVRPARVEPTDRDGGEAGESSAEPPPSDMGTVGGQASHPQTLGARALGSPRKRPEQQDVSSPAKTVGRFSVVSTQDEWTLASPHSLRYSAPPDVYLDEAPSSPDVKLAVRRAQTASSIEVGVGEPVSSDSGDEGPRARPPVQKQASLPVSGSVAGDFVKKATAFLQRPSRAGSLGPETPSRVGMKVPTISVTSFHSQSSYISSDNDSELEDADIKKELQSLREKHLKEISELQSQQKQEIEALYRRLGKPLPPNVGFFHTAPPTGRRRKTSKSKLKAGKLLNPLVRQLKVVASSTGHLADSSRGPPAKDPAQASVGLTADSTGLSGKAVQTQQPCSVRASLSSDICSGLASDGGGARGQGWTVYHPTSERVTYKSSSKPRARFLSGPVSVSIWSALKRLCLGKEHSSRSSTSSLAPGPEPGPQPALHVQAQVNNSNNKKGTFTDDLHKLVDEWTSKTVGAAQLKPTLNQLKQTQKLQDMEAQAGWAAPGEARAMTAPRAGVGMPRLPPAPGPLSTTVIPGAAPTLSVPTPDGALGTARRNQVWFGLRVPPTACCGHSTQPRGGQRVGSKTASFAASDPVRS

The molecule `Cc1cc([C@@H](C)Nc2ccccc2C(=O)O)c2nc(N3CCOCC3)cc(=O)n2c1` [AZD-6482] had a % of control in test [1] of 100%.

As for `CC[C@@H]1[C@H](F)C(=O)N[C@@H]1COc1nccc2cc(C(N)=O)c(OC)cc12` [ZIMLOVISERTIB], the % of inhibition worked out at 10.1% in test [2] (at 0.01 µM); 23.3% in test [2] (at 0.04 µM); 9.7% in test [2] (at 0.2 µM); 3.1% in test [2] (at 1 µM); 3% in test [2] (at 5 µM).

On to `COc1cc(Nc2nc(C)cc(-c3cnn4nc(OC)ccc34)n2)cc(C(F)(F)F)c1`, for which, in test [3], the % of control worked out at 89%.

In the case of `CN(C)CCOc1ccc(-c2nc(-c3ccncc3)c(-c3ccc4c(c3)CC/C4=N\O)[nH]2)cc1`, the % of control in test [4] is 75%.
